Molecules are shown by their SMILES. pKi: −log10 of the molar value. Some results are limits rather than exact numbers.

The test deals with T1, JAK3 (Homo sapiens, UniProt P52333).
T1 sequence (P52333 1-1124): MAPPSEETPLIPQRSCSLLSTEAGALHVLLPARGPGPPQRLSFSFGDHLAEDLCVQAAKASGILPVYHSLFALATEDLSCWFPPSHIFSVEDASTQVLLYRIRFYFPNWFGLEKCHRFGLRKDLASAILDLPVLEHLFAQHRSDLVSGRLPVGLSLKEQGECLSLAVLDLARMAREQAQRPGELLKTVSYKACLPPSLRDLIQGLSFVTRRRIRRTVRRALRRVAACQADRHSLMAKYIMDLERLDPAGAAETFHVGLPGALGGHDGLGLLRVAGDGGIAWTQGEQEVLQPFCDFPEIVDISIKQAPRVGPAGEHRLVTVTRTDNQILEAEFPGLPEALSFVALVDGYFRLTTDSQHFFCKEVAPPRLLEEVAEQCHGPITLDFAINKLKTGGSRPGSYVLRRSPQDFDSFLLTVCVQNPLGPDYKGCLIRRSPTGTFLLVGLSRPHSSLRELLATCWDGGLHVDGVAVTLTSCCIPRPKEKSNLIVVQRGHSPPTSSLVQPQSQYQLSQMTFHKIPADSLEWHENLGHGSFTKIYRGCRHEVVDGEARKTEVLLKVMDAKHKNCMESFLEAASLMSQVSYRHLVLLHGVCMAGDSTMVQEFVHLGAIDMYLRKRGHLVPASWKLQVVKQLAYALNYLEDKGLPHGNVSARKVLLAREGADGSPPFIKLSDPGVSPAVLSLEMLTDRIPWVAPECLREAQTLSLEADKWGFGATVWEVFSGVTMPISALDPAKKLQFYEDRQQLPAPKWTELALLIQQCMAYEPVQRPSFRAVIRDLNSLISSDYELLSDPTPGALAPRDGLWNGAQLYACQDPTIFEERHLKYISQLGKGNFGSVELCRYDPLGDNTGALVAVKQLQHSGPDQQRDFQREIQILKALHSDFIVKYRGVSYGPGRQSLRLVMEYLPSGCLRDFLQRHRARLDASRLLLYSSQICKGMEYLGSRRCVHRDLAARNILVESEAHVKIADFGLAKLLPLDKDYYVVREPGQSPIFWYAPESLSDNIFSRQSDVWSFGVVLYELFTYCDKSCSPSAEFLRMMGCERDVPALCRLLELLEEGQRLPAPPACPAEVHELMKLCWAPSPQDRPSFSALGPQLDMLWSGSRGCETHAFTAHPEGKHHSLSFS
Kind of test: JAK3 inhibition assay (ELISA, Poly (Glu, Ala, Tyr) coated plates). It is filed as biochemical. The following applies: 2 mM ATP, 60 minutes at 30° C. The method in brief:
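ELISA on Poly(Glu,Ala,Tyr) 6:3:1-coated plates with 2 mM ATP and 5 mM MgCl2. JAK enzyme started the reaction, run 60 min at 30° C. Phosphotyrosine was detected with HRP-conjugated 4G10 antibody and TMB, read at 450 nm, and IC50 was derived from optical densities.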
Background: An ELISA detects its analyte on a solid surface through an enzyme-linked reagent.

As to `Cc1cnc2[nH]cc(-c3oncc3-c3cccc(F)c3F)c2c1` [Compound 46, 3-[4-(2,3-Difluoro-phenyl)-isoxazol-5-yl]-5-methyl-1H-pyrrolo[2,3-b]pyridine], the pKi (as a rule, the Ki on a negative log10 scale, so that one unit is a factor of ten) is 6.00 to 6.70.
Consider `Fc1cccc(-n2cnnc2-c2c[nH]c3ncc(-c4ccc(N5CCNCC5)nc4)cc23)c1F` [Compound 111, 3-[4-(2,3-Difluoro-phenyl)-4H-[1,2,4]triazol-3-yl]-5-(6-piperazin-1-yl-pyridin-3-yl)-1H-pyrrolo[2,3-b]pyridine], for which the pKi was 4.90 to 6.00.
As for `Fc1cccc(-c2cnoc2-c2c[nH]c3ccc(-c4ccncc4)cc23)c1F` [Compound 34, 3-[4-(2,3-Difluoro-phenyl)-isoxazol-5-yl]-5-pyridin-4-yl-1H-indole], the figure is 4.90 to 6.00; as for `OB(O)c1cnc2[nH]cc(-c3oncc3-c3cccc(F)c3F)c2c1` [Compound 154], above 6.70; as for `CN(C)C1CCC(c2cnc3[nH]cc(-c4oncc4-c4cccc(F)c4F)c3c2)CC1` (stereo not shown) [Compound 141, (4-{3-[4-(2,3-Difluoro-phenyl)-isoxazol-5-yl]-1H-pyrrolo[2,3-b]pyridin-5-yl}-cyclohexyl)-dimethylamine], 6.00 to 6.70.
As to `Fc1cccc(-c2cnoc2-c2c[nH]c3nc(Cl)c(-c4ccncc4)cc23)c1F` [Compound 103, 6-Chloro-3-[4-(2,3-difluoro-phenyl)-isoxazol-5-yl]-5-pyridin-4-yl-1H-pyrrolo[2,3-b]pyridine], the pKi was 4.90 to 6.00.
Next, `Fc1cnc2[nH]cc(-c3oncc3-c3cccc(F)c3F)c2c1` [Compound 45, 3-[4-(2,3-Difluoro-phenyl)-isoxazol-5-yl]-5-fluoro-1H-pyrrolo[2,3-b]pyridine]: 4.90 to 6.00.
As for `OCc1cnc2[nH]cc(-c3oncc3-c3cccc(F)c3F)c2c1` [Compound 55, {3-[4-(2,3-Difluoro-phenyl)-isoxazol-5-yl]-1H-pyrrolo[2,3-b]pyridin-5-yl}-methanol], the figure is 4.90 to 6.00; as for `Fc1cccc(-c2cnoc2-c2n[nH]c3ncccc23)c1F` [Compound 31, 3-(4-(2,3-difluorophenyl)isoxazol-5-yl)-1H-pyrazolo[3,4-b]pyridine], 4.90 to 6.00.
Next, `Fc1ccc(F)c(-c2cnoc2-c2c[nH]c3ncccc23)c1F` [Compound 41, 3-[4-(2,3,6-Trifluoro-phenyl)-isoxazol-5-yl]-1H-pyrrolo [2,3-b]pyridine]: above 6.70; `NC(=O)c1ccc(-c2cnc3[nH]cc(-c4oncc4-c4cccc(F)c4F)c3c2)cc1` [Compound 153]: above 6.70.
Compound `O=C(c1cnc2[nH]cc(-c3oncc3-c3cccc(F)c3F)c2c1)N1CCCC1` [Compound 104, {3-[4-(2,3-Difluoro-phenyl)-isoxazol-5-yl]-1H-pyrrolo[2,3-b]pyridin-5-yl}-pyrrolidin-1-yl-methanone] showed a pKi of 4.90 to 6.00.
Next, `Fc1cccc(-c2cnoc2-c2c[nH]c3ncc(CCn4cncn4)cc23)c1F` [Compound 132, 3-[4-(2,3-Difluoro-phenyl)-isoxazol-5-yl]-5-(2-[1,2,4]triazol-1-yl-ethyl)-1H-pyrrolo[2,3-b]pyridine]: 4.90 to 6.00; `Fc1cc(F)c(F)c(-c2cnoc2-c2c[nH]c3ncccc23)c1` [Compound 39, 3-[4-(2,3,5-Trifluoro-phenyl)-isoxazol-5-yl]-1H-pyrrolo [2,3-b]pyridine]: 6.00 to 6.70.
`Fc1cccc(-c2cnoc2-c2c[nH]c3ncc(Cl)cc23)c1F` [Compound 44, 3-[4-(2,3-Difluoro-phenyl)-isoxazol-5-yl]-5-chloro-1H-pyrrolo[2,3-b]pyridine] showed a pKi of 6.00 to 6.70.
As for `COc1cnc2[nH]cc(-c3nncn3-c3cccc(F)c3F)c2c1` [Compound 108, 3-[4-(2,3-Difluoro-phenyl)-4H-[1,2,4]triazol-3-yl]-5-methoxy-1H-pyrrolo[2,3-b]pyridine], the figure is 4.90 to 6.00; as for `c1ccc(-c2cnoc2-c2c[nH]c3ncccc23)cc1` [Compound 35, 3-[4-Phenyl-isoxazol-5-yl]-1H-pyrrolo[2,3-b]pyridine], 6.00 to 6.70.
For `C[N+]1(C)CCN(c2ccc(-c3cnc4[nH]cc(-c5oncc5-c5cccc(F)c5F)c4c3)cc2)CC1` [Compound 155], the negative-log Ki (pKi) was above 6.70.
As for `CN1CCN(C(=O)[C@H]2C[C@@H]2c2cnc3[nH]cc(-c4oncc4-c4cccc(F)c4F)c3c2)CC1` (relative stereo) [Compound 142, trans-(2-{3-[4-(2,3-Difluoro-phenyl)-isoxazol-5-yl]-1H-pyrrolo[2,3-b]pyridin-5-yl}-cyclopropyl)-(4-methyl-piperazin-1-yl)-methanone], the figure is 6.00 to 6.70.

Source of the values: patent publication US7446199B2, “Compositions useful as inhibitors of protein kinases” (Vertex Pharmaceuticals Incorporated, priority 2003, dated 2008).
